Where “and” joins values, the source holds several entries; their conditions need not be identical. Equal entries are not always repeated. Marks after values point to notes of the source that are not given here. Positions of bridges follow the written chain, without caps; N, C: chain ends. Non-standard residues stand in square brackets, D forms with d. Residues, ends and D or L forms follow the SMILES beside them. Chains are numbered I, II in the order given. *: point of attachment. PNA(A) = NCCN(CC(=O)*)C(=O)Cn1cnc2c(N)ncnc21; Adenin9ylacetyl = Nc1ncnc2c1ncn2CC(=O)*; N(CH2CH2NHAc)Gly = CC(=O)NCCNCC(=O)O
Key:
[1] = biological target: Akt/PKB (Homo sapiens, UniProt P31749); test: Luminescence Kinase Glo assay, Akt/PKB; format: biochemical; conditions: 150000.0
Sequence of Akt/PKB (P31749 whole entry): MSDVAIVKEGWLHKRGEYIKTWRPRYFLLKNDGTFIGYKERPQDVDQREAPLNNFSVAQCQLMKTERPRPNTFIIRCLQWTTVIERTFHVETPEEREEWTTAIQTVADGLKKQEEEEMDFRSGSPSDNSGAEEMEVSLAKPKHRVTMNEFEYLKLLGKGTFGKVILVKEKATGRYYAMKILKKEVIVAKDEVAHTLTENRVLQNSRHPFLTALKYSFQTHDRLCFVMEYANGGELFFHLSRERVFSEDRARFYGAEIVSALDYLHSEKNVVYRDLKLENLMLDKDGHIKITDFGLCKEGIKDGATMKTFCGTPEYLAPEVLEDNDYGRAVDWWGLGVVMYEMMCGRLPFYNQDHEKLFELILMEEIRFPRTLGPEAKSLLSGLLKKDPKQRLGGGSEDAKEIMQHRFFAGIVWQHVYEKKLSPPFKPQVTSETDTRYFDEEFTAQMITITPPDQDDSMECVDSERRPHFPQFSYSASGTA
Description: The ability of the PKI compounds to inhibit PKA, CDK2, Akt/PKB, MAPKp38 and CK2a2 protein kinases was assessed using the Luminescence Kinase Glo® Kit (Promega V6711) according to the manufacturer's instructions. In brief the protocol was as follows:
All kinases were prepared in their respective 1× buffers. 20 μL of […] reaction buffer was added to each well. 10 μL of PKI compound and 10 μL of the test kinase solution were added followed by 10 μL of the Reaction Solution (containing activators, ATP and substrate). The reactions were incubated at 30° C. for 30 min and then 50 μL of Kinase-Glo® was added. Luminescence was measured after 10-15 min on a Galaxy reader.

[2] = test system: LS180 colon cancer cells; test: Rhodamine influx and efflux in LS180 colon cancer cells; format: cell-based; conditions: doxorubicin exposed controls
Description: (§1) The amount of rhodamine influx and efflux following treatment of LS180 colon cancer cells and H-661 NSCLC cells with the PKI compounds was also investigated. The measurement of rhodamine efflux and influx is a common procedure that provides a quantitative estimation of the level of multidrug resistance due to typical MDR and non-P-gp MDR. Both exogenous treatment using 5 μg/mL of the PKI compounds provided at the same time as doxorubicin, and endogenous incorporation, in which a single dose of 5 mM was used with the standard pinocytic endocytosis protocol, were investigated.
(§2) The MDR-1 pump functions only as an efflux pump, however, it modulates the cell entry of rhodamine (that can diffuse through the membrane). Upon toxicant exposure, rhodamine accumulates in the cells. Ratios of rhodamine fluorescence in doxorubicin exposed versus untreated controls (CT) are lower if the pump is inhibited.

[3] = test system: H-661 NSCLC cells; test: Rhodamine influx and efflux in H-661 NSCLC cells; format: cell-based; conditions: control cells exposed to doxorubicin
Description: as §1, §2

[4] = test system: Pgp expression in LS180 colon cancer cells; test: Pgp expression in LS180 colon cancer cells, flow cytometry; format: cell-based; conditions: LS180 control cell population exposed to doxorubicin for 72 h
Description: (§3) The protocol used for fixing the cells for flow cytometry is as follows. A minimum of 1.0×10^6 cells was used in each instance. Cells were trypsinized and spun down at 1,000/5 min at 4° C. All the medium was removed and the cells resuspended in 500 μl of 1×PBS, pH 7.1. The cell suspension was added into 5 mls of 1% paraformaldehyde/PBS on ice and fixed for 15 min on ice. Cells were then centrifuged at 1,000/5 min and resuspended in 10 mls of 1×PBS. Cells were centrifuged again at 1,000/5 min and resuspended in 2 mls of 70% ETOH and kept at −20° C. until needed (up to 1 week). At which time, 2 mls of 1×PBS containing 1% BSA/0.02% NaN3 was added to each tube and the cells were left on ice for 5 min to give the cells time to rehydrate. Cells were then centrifuged at 1,000/5 min and the ETOH/PBS mix removed. […]
(§4) In view of the key role of the Pgp170 and MRP-1 proteins in MDR, the effect of the PKI compounds on expression of these proteins in LS180 colon cancer cells and H-661 NSCLC cells was investigated. […] The number of cells individually analysed amounted to approximately 50,000 with a statistical error of about 0.08%.
(§5) The increase in the expression of P-gp and MRP-1 was assessed by comparing the % of cells expressing the protein in question in the presence and absence of doxorubicin (i.e. the ratio A/B in the Tables).

[5] = test system: Pgp expression in H-661 NSCLC cells; test: Pgp expression in H-661 NSCLC cells, flow cytometry; format: cell-based; conditions: H-661 control cell population exposed to doxorubicin for 72 h
Description: as §3, §4, §5

[6] = test system: PKCα expression in H-661 NSCLC cells; test: Expression of PKCα in H-661 cells, flow cytometry; format: cell-based; conditions: H-661 control cells exposed to doxorubicin for 72 h
Description: (§6) The effect of compounds 1 to 10 on doxorubicin-induced expression of PKCα in LS180 colon cancer cells and H-661 NSCLC cells was investigated. Cells were exposed to doxorubicin (50 ng/mL) for 3 days prior to exogenous treatment with the PKI compounds at a concentration of 5 μM. Results were acquired by flow cytometry after labelling of the cells with the PKC-alpha #sc 208 antibody.
as §3, with “removed. The cells were resuspended in 5 mls of 1×PBS and allowed to sit on ice for 5 min.” for “removed.”

[7] = test system: PKCα expression in LS180 colon cancer cells; test: Expression of PKCα in LS180 cells, flow cytometry; format: cell-based; conditions: LS180 control cells exposed to doxorubicin for 72 h
Description: as §6
as §3, with “removed. The cells were resuspended in 5 mls of 1×PBS and allowed to sit on ice for 5 min.” for “removed.”

[8] = test system: MRP-1 expression in H-661 NSCLC cells; test: MRP-1 expression in H-661 NSCLC cells, flow cytometry; format: cell-based; conditions: H-661 control cell population exposed to doxorubicin for 72 h
Description: as §3, §4, §5

[9] = test system: MRP-1 expression in LS180 colon cancer cells; test: MRP-1 expression in LS180 colon cancer cells, flow cytometry; format: cell-based; conditions: LS180 control cell population exposed to doxorubicin for 72 h
Description: as §3, §4, §5

## CC[C@H](C)[C@H](NC(=O)[C@H](CSSC[C@H](NC(=O)CNC(=O)CN(CCNC(C)=O)C(=O)Cn1cnc2c(N)ncnc21)C(=O)N[C@@H](CCCCN)C(=O)NCC(=O)N[C@@H](CCCCN)C(=O)N[C@@H](Cc1ccccc1)C(=O)N[C@@H](CCCCN)C(=O)N[C@@H](CCCNC(=N)N)C(N)=O)NC(=O)[C@H](Cc1c[nH]cn1)NC(C)=O)C(=O)NCC(=O)N[C@@H](CCCNC(=N)N)C(=O)N[C@@H](Cc1ccccc1)C(=O)N[C@@H](CCCCN)C(N)=O [Compound 1] (I: Adenin9ylacetyl-[N(CH2CH2NHAc)Gly]GCKGKFKR-NH2 / II: Ac-HCIGRFK-NH2; disulfide I:3-II:2; N-terminus and C-terminus assumed)
[1]
  % Inhibition Akt/PKB: −31* %

## CC(=O)N[C@@H](CCCCN)C(=O)N[C@@H](Cc1ccccc1)C(=O)N[C@@H](CCCNC(=N)N)C(=O)N[C@@H](CCCNC(=N)N)C(=O)N[C@@H](CCCCNC(=O)CN(CCN)C(=O)Cn1cnc2c(N)ncnc21)C(=O)N[C@@H](CCCNC(=N)N)C(=O)NCC(=O)N[C@@H](CCCNC(=N)N)C(=O)N[C@@H](CCC(=O)O)C(=O)N[C@H](C(=O)N[C@@H](CC(=O)O)C(N)=O)C(C)C [Compound 5] (Ac-KFRRK(PNA(A))RGREVD-NH2)
[1]
  % Inhibition Akt/PKB: −6* %

## CC(=O)N[C@@H](CCCCN)C(=O)N[C@@H](Cc1ccccc1)C(=O)N[C@@H](CCCNC(=N)N)C(=O)N[C@@H](CCCNC(=N)N)C(=O)N[C@@H](CCCCNC(=O)CN(CCN)C(=O)Cn1cnc2c(N)ncnc21)C(=O)N[C@@H](CC(C)C)C(=O)N[C@@H](CCCNC(=N)N)C(=O)N[C@@H](CC(C)C)C(=O)N[C@@H](CCC(=O)O)C(=O)N[C@H](C(=O)N[C@@H](CC(=O)O)C(N)=O)C(C)C [Compound 6] (Ac-KFRRK(PNA(A))LRLEVD-NH2)
[1]
  % Inhibition Akt/PKB: −10* %

## CC(=O)N[C@@H](CCCCN)C(=O)N[C@@H](CC(C)C)C(=O)N[C@@H](CCCNC(=N)N)C(=O)N[C@@H](CCCNC(=N)N)C(=O)N[C@@H](C)C(=O)N[C@@H](CCCCNC(=O)CN(CCN)C(=O)Cn1cnc2c(N)ncnc21)C(=O)N[C@@H](CCCNC(=N)N)C(=O)N[C@@H](Cc1ccccc1)C(=O)N[C@@H](CC(C)C)C(=O)N[C@@H](CCC(=O)O)C(=O)N[C@H](C(=O)N[C@@H](CC(=O)O)C(N)=O)C(C)C [Compound 7] (Ac-KLRRAK(PNA(A))RFLEVD-NH2)
[1]
  % Inhibition Akt/PKB: −7* %

## CC(=O)N[C@@H](CCCCN)C(=O)N[C@@H](CC(C)C)C(=O)N[C@@H](CCCNC(=N)N)C(=O)N[C@@H](CCCNC(=N)N)C(=O)N[C@@H](C)C(=O)N[C@@H](CCCCNC(=O)CN(CCN)C(=O)Cn1cnc2c(N)ncnc21)C(=O)N[C@@H](CC(C)C)C(=O)NCC(=O)N[C@@H](CC(C)C)C(=O)NCC(=O)N[C@@H](CC(=O)O)C(=O)N[C@@H](CC(=O)O)C(N)=O [Compound 8] (Ac-KLRRAK(PNA(A))LGLGDD-NH2)
[1]
  % Inhibition Akt/PKB: 0%

## CC(=O)N[C@@H](CCCCN)C(=O)N[C@@H](CC(C)C)C(=O)N[C@@H](CCCCN)C(=O)N[C@@H](CCCCN)C(=O)N[C@@H](C)C(=O)N[C@@H](CCCCNC(=O)CN(CCN)C(=O)Cn1cnc2c(N)ncnc21)C(=O)N[C@@H](CC(C)C)C(=O)NCC(=O)N[C@@H](CC(C)C)C(N)=O [Compound 9] (Ac-KLKKAK(PNA(A))LGL-NH2; N-terminus and C-terminus assumed)
[1]
  % Inhibition Akt/PKB: 7%

## CC(=O)NCCN(CC(=O)NCC(=O)N[C@@H](CS)C(=O)N[C@@H](CCCCN)C(=O)NCC(=O)N[C@@H](CCCCN)C(=O)N[C@@H](Cc1ccccc1)C(=O)N[C@@H](CCCCN)C(=O)N[C@@H](CCCNC(=N)N)C(N)=O)C(=O)Cn1cnc2c(N)ncnc21 [Compound 10] (Adenin9ylacetyl-[N(CH2CH2NHAc)Gly]GCKGKFKR-NH2; N-terminus and C-terminus assumed)
[1]
  % Inhibition Akt/PKB: 21%

## COc1cccc2c1C(=O)c1c(O)c3c(c(O)c1C2=O)C[C@@](O)(C(=O)CO)C[C@@H]3O[C@H]1C[C@H](N)[C@H](O)[C@H](C)O1 [doxorubicin]
[2]
  rhodamine accumulation: 1.58 times and 1.43 times and 1.37 times
[3]
  increase in rhodamine retention: ~2.00 times
[4]
  increase in number of P-gp labelled cells, average: 2.38 times
[5]
  increase in number of P-gp labelled cells, average: 15.0 times
[6]
  increase in log fluorescence relative intensity (PKCα), average: 2.19 times
[7]
  increase in log fluorescence relative intensity (PKCα), average: 1.99 times
[8]
  increase in number of MRP-1 labelled cells, average: 12.05 times
[9]
  increase in number of MRP-1 labelled cells, average: 3.41 times

Source: US8158586B2, “Inhibitors of protein kinases and uses thereof” (priority 2005, dated 2012)
